Data reported in the OligoGym collection.
HELM strings list units from the 5' end as sugar, base in round brackets, then linkage (d deoxyribose, r ribose, m 2'-O-methyl, p phosphodiester). Strings are as the collection lists them; they lack the last nucleoside at the 3' end of the tested compound. [moe] = 2'-O-(2-methoxyethyl) (MOE); [sp] = phosphorothioate linkage; [m5C] = 5-methylcytosine

Molecular target: UBE3A-ATS
Experiment: mouse, dose not given
Details: ASO

| Substance | 3 h FOB score [score 0-7] |
| --- | --- |
| RNA1{[moe](T)[sp].[moe]([m5C])p.[moe](T)p.[moe](T)p.[moe](G)p.d([m5C])[sp].d(T)[sp].d(G)[sp].d(A)[sp].d(T)[sp].d([m5C])[sp].d(A)[sp].d([m5C])[sp].d(A)[sp].d(T)[sp].[moe](T)p.[moe](A)p.[moe]([m5C])[sp].[moe]([m5C])}$$$$ (last 3' nucleoside missing) | 0 |
| RNA1{[moe](T)[sp].[moe]([m5C])p.[moe](T)p.[moe]([m5C])p.[moe](A)p.d(T)[sp].d(G)[sp].d(T)[sp].d(G)[sp].d(T)[sp].d(T)[sp].d(T)[sp].d(T)[sp].d(T)[sp].d(G)[sp].[moe](T)p.[moe](T)p.[moe]([m5C])[sp].[moe]([m5C])}$$$$ (last 3' nucleoside missing) | 5 |
| RNA1{[moe](T)[sp].[moe]([m5C])p.[moe](T)p.[moe]([m5C])p.[moe](G)p.d(G)[sp].d(G)[sp].d(T)[sp].d(A)[sp].d(T)[sp].d(A)[sp].d(T)[sp].d(A)[sp].d(A)[sp].d(A)[sp].[moe](T)p.[moe](T)p.[moe](A)[sp].[moe](A)}$$$$ (last 3' nucleoside missing) | 0 |
| RNA1{[moe](T)[sp].[moe]([m5C])p.[moe](T)p.[moe]([m5C])p.[moe]([m5C])p.d(A)[sp].d(G)[sp].d(T)[sp].d(T)[sp].d(T)[sp].d(T)[sp].d([m5C])[sp].d(G)[sp].d([m5C])[sp].d([m5C])[sp].[moe]([m5C])p.[moe](G)p.[moe](T)[sp].[moe](T)}$$$$ (last 3' nucleoside missing) | 4.7 |
| RNA1{[moe](T)[sp].[moe]([m5C])p.[moe]([m5C])p.[moe]([m5C])p.[moe](A)p.d(T)[sp].d(T)[sp].d([m5C])[sp].d(A)[sp].d(G)[sp].d([m5C])[sp].d(A)[sp].d([m5C])[sp].d(T)[sp].d(T)[sp].[moe](A)p.[moe](G)p.[moe](G)[sp].[moe](T)}$$$$ (last 3' nucleoside missing) | 3 |
| RNA1{[moe](T)[sp].[moe]([m5C])p.[moe]([m5C])p.[moe]([m5C])p.[moe](A)p.d(T)[sp].d([m5C])[sp].d(A)[sp].d(T)[sp].d([m5C])[sp].d(A)[sp].d(G)[sp].d(T)[sp].d(G)[sp].d(T)[sp].[moe](G)p.[moe](T)p.[moe](G)[sp].[moe]([m5C])}$$$$ (last 3' nucleoside missing) | 3.25 |
| RNA1{[moe]([m5C])[sp].[moe](A)[sp].[moe](A)[sp].[moe]([m5C])[sp].[moe](T)[sp].d(G)[sp].d(T)[sp].d(T)[sp].d(A)[sp].d([m5C])[sp].d([m5C])[sp].d(A)[sp].d(A)[sp].d(G)[sp].d(A)[sp].[moe]([m5C])[sp].[moe](T)[sp].[moe](T)[sp].[moe]([m5C])}$$$$ (last 3' nucleoside missing) | 4.8 |
| RNA1{[moe]([m5C])[sp].[moe](A)p.[moe](A)p.[moe](G)p.[moe](A)p.d([m5C])[sp].d([m5C])[sp].d(T)[sp].d(A)[sp].d(T)[sp].d(A)[sp].d(G)[sp].d(G)[sp].d(A)[sp].d([m5C])[sp].[moe]([m5C])p.[moe](T)p.[moe]([m5C])[sp].[moe](A)}$$$$ (last 3' nucleoside missing) | 3 |
| RNA1{[moe]([m5C])[sp].[moe](A)p.[moe](A)p.[moe](T)p.[moe](G)p.d(G)[sp].d(T)[sp].d(T)[sp].d(T)[sp].d(A)[sp].d(G)[sp].d(T)[sp].d(G)[sp].d(T)[sp].d([m5C])[sp].[moe](A)p.[moe](T)p.[moe](A)[sp].[moe](T)}$$$$ (last 3' nucleoside missing) | 5 |
| RNA1{[moe]([m5C])[sp].[moe](A)p.[moe](A)p.[moe]([m5C])p.[moe](T)p.d(T)[sp].d([m5C])[sp].d(A)[sp].d(T)[sp].d([m5C])[sp].d(A)[sp].d(A)[sp].d(T)[sp].d(A)[sp].d(T)[sp].[moe](T)p.[moe](T)p.[moe]([m5C])[sp].[moe]([m5C])}$$$$ (last 3' nucleoside missing) | 1 |
